In general, pIC50 refers to −log10 of the IC50, conventionally taken in molar units. High values mean a low IC50, low ones a high IC50. Broadly, the pKi is the negative decadic logarithm of the Ki, by convention in mol/L. Higher therefore signals a small Ki.

The results in this text go back to ChEMBL document CHEMBL4616589, “Exploring structure-promiscuity relationships using dual-site promiscuity cliffs and corresponding single-site analogs” (Bioorg Med Chem, 2020).

pIC50, pKi: −log10 of the molar value.

Experiment [1] deals with Vascular endothelial growth factor receptor 1 (Homo sapiens, UniProt P17948). Kind of experiment: Inhibition of VEGFR1 (unknown origin).
Chain of Vascular endothelial growth factor receptor 1 (P17948 whole entry): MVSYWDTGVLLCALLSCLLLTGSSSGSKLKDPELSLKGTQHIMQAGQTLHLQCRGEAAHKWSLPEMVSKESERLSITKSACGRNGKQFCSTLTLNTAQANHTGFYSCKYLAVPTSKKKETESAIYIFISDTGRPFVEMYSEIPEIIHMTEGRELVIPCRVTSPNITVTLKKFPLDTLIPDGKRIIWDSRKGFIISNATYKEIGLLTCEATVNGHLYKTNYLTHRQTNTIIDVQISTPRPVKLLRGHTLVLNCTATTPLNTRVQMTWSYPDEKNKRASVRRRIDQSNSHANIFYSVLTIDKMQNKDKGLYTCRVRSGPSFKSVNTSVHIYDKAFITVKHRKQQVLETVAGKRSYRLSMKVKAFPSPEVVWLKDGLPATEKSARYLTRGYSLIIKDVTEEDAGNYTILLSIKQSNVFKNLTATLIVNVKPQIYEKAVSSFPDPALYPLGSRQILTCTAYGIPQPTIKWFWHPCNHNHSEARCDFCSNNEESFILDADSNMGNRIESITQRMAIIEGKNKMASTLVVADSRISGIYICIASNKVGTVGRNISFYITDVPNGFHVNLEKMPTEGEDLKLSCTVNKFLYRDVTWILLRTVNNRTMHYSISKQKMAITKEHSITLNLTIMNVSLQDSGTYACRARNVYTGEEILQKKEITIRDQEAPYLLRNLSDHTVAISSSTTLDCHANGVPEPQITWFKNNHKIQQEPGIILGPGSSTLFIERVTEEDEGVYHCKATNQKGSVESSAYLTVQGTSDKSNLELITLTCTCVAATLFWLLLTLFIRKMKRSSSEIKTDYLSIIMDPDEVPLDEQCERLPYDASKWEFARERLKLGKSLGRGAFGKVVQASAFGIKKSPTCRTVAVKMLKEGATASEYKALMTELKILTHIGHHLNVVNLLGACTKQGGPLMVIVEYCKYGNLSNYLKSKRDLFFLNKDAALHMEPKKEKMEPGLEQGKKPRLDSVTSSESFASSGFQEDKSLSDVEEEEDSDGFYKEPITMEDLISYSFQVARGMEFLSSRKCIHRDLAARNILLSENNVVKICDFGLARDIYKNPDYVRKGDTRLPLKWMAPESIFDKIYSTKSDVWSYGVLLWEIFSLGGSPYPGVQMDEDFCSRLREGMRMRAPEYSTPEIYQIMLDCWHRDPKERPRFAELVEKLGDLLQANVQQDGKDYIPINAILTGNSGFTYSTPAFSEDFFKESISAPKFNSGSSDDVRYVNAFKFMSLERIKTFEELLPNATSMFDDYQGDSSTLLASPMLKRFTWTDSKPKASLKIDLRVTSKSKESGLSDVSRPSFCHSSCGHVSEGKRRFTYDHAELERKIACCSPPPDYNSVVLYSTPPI
Experiment [2] deals with Tyrosine-protein kinase ABL1 (Homo sapiens, UniProt P00519). Kind of experiment: Inhibition of ABL1 (unknown origin).
Chain of Tyrosine-protein kinase ABL1 (P00519 whole entry): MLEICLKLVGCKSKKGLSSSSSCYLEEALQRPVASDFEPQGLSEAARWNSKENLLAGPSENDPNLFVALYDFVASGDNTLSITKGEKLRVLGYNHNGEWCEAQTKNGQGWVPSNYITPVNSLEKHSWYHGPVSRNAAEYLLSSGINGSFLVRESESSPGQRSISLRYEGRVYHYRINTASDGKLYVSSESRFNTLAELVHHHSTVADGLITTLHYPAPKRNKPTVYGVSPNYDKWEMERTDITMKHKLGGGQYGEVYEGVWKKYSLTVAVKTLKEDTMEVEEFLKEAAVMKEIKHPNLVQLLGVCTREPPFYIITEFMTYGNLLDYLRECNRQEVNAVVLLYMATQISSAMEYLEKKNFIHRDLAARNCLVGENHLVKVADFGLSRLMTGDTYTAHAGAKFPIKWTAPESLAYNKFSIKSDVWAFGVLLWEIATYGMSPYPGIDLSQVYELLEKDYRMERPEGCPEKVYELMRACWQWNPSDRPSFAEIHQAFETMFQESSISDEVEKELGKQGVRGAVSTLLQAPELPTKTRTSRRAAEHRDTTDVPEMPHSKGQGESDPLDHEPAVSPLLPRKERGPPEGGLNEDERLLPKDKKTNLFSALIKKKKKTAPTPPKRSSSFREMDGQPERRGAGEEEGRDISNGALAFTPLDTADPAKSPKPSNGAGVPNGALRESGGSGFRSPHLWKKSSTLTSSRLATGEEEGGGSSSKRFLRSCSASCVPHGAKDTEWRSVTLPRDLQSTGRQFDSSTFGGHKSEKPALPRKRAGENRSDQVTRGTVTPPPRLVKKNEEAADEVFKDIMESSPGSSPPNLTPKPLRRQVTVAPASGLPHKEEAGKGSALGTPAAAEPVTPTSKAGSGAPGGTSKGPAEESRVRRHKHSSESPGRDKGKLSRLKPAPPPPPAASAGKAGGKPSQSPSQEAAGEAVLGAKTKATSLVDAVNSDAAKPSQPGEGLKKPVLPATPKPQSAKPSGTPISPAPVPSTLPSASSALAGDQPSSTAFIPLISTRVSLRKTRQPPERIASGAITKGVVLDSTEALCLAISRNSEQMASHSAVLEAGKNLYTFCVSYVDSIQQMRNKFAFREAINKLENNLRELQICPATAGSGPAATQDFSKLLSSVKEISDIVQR

In turn, `ClC(Cn1ncc2c(NCc3ccccc3)ncnc21)c1ccccc1` (configuration not stated) showed a pIC50 in experiment [1] of 6.00.

For the compound `CCCCNc1ncnc2c1cnn2CC(Cl)c1ccccc1` (configuration not stated), in experiment [2], the pKi is 5.70.
